Measured values taken from patent US11912693B2, “Compounds for modulating S1P1 activity and methods of using the same” (TREVENA, INC., priority 2017, dated 2024).

Tests used:
[1] = biological target: T1, human sphingosine-1-phosphate receptor 1 (S1P1) (Homo sapiens (Human), UniProt P21453); experiment: Inhibition of cAMP production (HTRF cAMP HiRange), S1P1 CHO-K1 cells; type: cell-based; settings: for Emax: CHO-K1, read-out: hS1P1 cAMP SPAN; for hS1P1 cAMP pEC50 / EC50: inhibition of cAMP production, S1P1 CHO-K1 cells; for EC50: read-out: hS1P1 cAMP pEC50 (converted)
Protocol: (§1) Stable clonal Chinese hamster ovary K1 (CHO-K1) cells co-expressing EA-β-arrestin2 and the human sphingosine-1-phosphate receptor 1 (NM_001400, S1P1) with a C-terminal Prolink™ tag were purchased from DiscoverX corporation (Cat #: 93-0207C2).
(§2) Cell lines were cultured in AssayComplete™ Media 6 (DiscoverX Corporation, Cat #: 920018GF2) at 37° C. and 5% CO2 in a humidified CO2 and temperature-controlled incubator. To begin assay plating, cells were washed with dulbecco's phosphate buffered saline (CellGro, Cat #: 21-031-CV) and lifted from the culturing flask by incubation (37° C., 5 min) with CellStripper (Cellgro, Cat #: 25-056-CI). […] Plated cells were incubated overnight at 37° C. and 5% CO2 in a humidified CO2 and temperature-controlled incubator. Detecting Inhibition of cAMP Production
Agonist-promoted G-protein responses were determined by measuring changes in intracellular cAMP using the HTRF® cAMP HiRange kit (CisBio, Cat #: 62AM6PEJ) based on time-resolved fluorescence resonance energy transfer (TR-FRET) technology. […] Following a 30-minute incubation at 37° C. and 5% CO2 in a humidified CO2 and temperature-controlled incubator, the components of the cAMP HiRange kit were added as per the manufacturer's instructions. After an hour incubation at room temperature, plates were analyzed by a BMG PheraStar microplate reader.
(§3) The tables below include the efficacy of the compound as compared to a positive control, referred to as “SPAN”. These values are normalized to fingolimod, a known agonist of the sphingosine-1-phosphate 1 receptor. The tables also include potency values (pEC50) for modulating discrete receptor-mediated activities (inhibition of cAMP production and […] recruitment).
Target sequence in this assay (P21453 whole entry, looked up): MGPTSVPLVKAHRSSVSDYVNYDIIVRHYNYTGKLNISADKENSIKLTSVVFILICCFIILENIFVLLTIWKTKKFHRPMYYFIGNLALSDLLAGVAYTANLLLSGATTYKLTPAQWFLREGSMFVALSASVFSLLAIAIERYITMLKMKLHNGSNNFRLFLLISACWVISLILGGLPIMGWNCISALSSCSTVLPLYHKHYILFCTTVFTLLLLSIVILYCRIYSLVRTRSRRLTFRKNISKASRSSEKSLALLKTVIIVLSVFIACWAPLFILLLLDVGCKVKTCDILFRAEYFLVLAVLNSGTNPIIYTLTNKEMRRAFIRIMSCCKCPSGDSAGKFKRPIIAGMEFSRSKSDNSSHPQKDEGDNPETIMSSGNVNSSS

[2] = biological target: T1, human sphingosine-1-phosphate receptor 1 (S1P1); experiment: β-Arrestin2 recruitment assay (PathHunter), S1P1 CHO-K1 cells; type: cell-based; settings: for Emax: CHO-K1, read-out: hS1P1 B-arrestin2 SPAN; for hS1P1 B-arrestin2 pEC50 / EC50: β-arrestin2 recruitment, S1P1 CHO-K1 cells; for EC50: read-out: hS1P1 B-arrestin2 pEC50 (converted)
Protocol: as §1, §2
Target sequence in this assay (P21453 whole entry, looked up): as above
Target sequence in this assay (P32121 whole entry partner, looked up): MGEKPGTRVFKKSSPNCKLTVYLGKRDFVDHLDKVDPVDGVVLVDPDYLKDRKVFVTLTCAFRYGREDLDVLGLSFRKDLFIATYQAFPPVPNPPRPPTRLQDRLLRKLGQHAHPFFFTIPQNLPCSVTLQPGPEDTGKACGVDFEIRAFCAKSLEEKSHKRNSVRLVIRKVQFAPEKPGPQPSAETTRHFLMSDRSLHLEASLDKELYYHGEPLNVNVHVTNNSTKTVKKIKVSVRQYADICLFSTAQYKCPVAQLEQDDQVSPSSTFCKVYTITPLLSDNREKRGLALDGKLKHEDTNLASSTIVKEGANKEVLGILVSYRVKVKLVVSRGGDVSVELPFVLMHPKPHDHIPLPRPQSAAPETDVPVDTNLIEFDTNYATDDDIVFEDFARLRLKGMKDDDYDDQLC
Agonist-promoted β-arrestin2 recruitment to the sphingosine-1-phosphate 1 receptor was determined using the β-arrestin PathHunter®) Detection kit (DiscoverX Corporation, Cat #: 93-0001). […] In cells that stably express these fusion proteins, stimulation with a cognate agonist results in the interaction of […] and the Prolink™-tagged GPCR. This allows the complementation of the two β-galactosidase fragments and results in the formation of a functional enzyme with β-galactosidase activity. […] Following a 60 minute incubation at 37° C. and 5% CO2 in a humidified CO2 and temperature-controlled incubator, the components of the β-arrestin PathHunter® Detection kit were added as per the manufacturer's instructions. After an hour incubation at room temperature, plates were analyzed by a BMG PheraStar microplate reader.
as §3

[3] = efficacy (SPAN) normalized to fingolimod

| Emax [1, 3] | hS1P1 cAMP pEC50 [1] | Emax [2, 3] | hS1P1 B-arrestin2 pEC50 [2] | EC50 [1] | EC50 [2] | SMILES | hS1P1 cAMP SPAN [1, 3] | hS1P1 B-arrestin2 SPAN [2, 3] |
| --- | --- | --- | --- | --- | --- | --- | --- | --- |
| < 75% | <6.5 | < 75% | <5 | – | – | CC(C)n1nnc2cc(-c3nc(-c4ccc(Cl)s4)no3)ccc21 [Compound 170, 5-[3-(5-chlorothiophen-2-yl)-1,2,4-oxadiazol-5-yl]-1-(propan-2-yl)-1H-1,2,3-benzotriazole] | – | – |
| – | >6.5 | – | >5 | – | – | C=CCNc1ccc(-c2nc(-c3ccc4[nH]c(=O)oc4c3)no2)cc1C#N [Compound 189, 2-(allylamino)-5-(3-(2-oxo-2,3-dihydrobenzo[d]oxazol-6-yl)-1,2,4-oxadiazol-5-yl)benzonitrile] | – | – |
| – | <6.5 | – | <5 | – | – | Brc1ccccc1-c1nc(-c2ccc3c(c2)nnn3Cc2ccncc2)no1 [Compound 48, 5-(2-bromophenyl)-3-(1-(pyridin-4-ylmethyl)-1H-benzo[d][1,2,3]triazol-5-yl)-1,2,4-oxadiazole] | – | – |
| < 75% | <6.5 | < 75% | <5 | – | – | O=C1CC2(CCOCC2)Oc2ccc(-c3nc(-c4cccnc4)no3)cc21 [Compound 214, 6-[3-(pyridin-3-yl)-1,2,4-oxadiazol-5-yl]-3,4-dihydrospiro[1-benzopyran-2,4′-oxane]-4-one] | – | – |
| < 75% | <6.5 | < 75% | <5 | – | – | CCC1(CC)CC(=O)c2cc(-c3nc(-c4ccc(OC)nc4)no3)ccc2O1 [Compound 301, 2,2-diethyl-6-[3-(6-methoxy-3-pyridyl)-1,2,4-oxadiazol-5-yl]chroman-4-one] | – | – |
| < 75% | <6.5 | < 75% | <5 | – | – | Cc1ccc(-c2nc(-c3ccc4c(c3)nnn4C(C)C)no2)cn1 [Compound 119, 3-(1-isopropyl-1H-benzo[d][1,2,3]triazol-5-yl)-5-(6-methylpyridin-3-yl)-1,2,4-oxadiazole] | – | – |
| – | <6.5 | – | <5 | – | – | CC(C)n1nnc2cc(-c3nc(-c4cccnc4)no3)ccc21 [Compound 165, 1-(propan-2-yl)-5-[3-(pyridin-3-yl)-1,2,4-oxadiazol-5-yl]-1H-1,2,3-benzotriazole] | – | – |
| < 75% | <6.5 | < 75% | <5 | – | – | CCCn1nnc2cc(-c3nc(-c4cc(C)cc(C)c4)no3)ccc21 [Compound 76, 5-[3-(3,5-dimethylphenyl)-1,2,4-oxadiazol-5-yl]-1-propyl-1H-1,2,3-benzotriazole] | – | – |
| > 75% | >6.5 | > 75% | >5 | – | – | COc1ccccc1-c1noc(-c2ccc3c(c2)nnn3C(C)(C)C)n1 [Compound 207, 1-tert-butyl-5-[3-(2-methoxyphenyl)-1,2,4-oxadiazol-5-yl]-1H-1,2,3-benzotriazole] | – | – |
| > 75% | <6.5 | < 75% | <5 | – | – | C=CCNc1ccc(-c2ccc(-c3ccc4c(c3)nnn4C(C)C)cc2)cc1C#N [Compound 508, 4-(allylamino)-4′-(1-isopropyl-1H-benzo[d][1,2,3]triazol-5-yl)-[1,1′-biphenyl]-3-carbonitrile] | – | – |
| – | >6.5 | – | >5 | – | – | Cc1ccncc1-c1noc(-c2ccc3nnn(CC(C)C)c3c2)n1 [Compound 3, 1-(2-methylpropyl)-6-[3-(4-methylpyridin-3-yl)-1,2,4-oxadiazol-5-yl]-1H-1,2,3-benzotriazole] | – | – |
| – | <6.5 | – | <5 | – | – | CCC1(CC)CC(=O)c2cc(-c3nnc(-c4ccccc4OC)o3)ccc2O1 [Compound 300, 2,2-diethyl-6-(5-(2-methoxyphenyl)-1,3,4-oxadiazol-2-yl)chroman-4-one] | – | – |
| – | <6.5 | – | >5 | – | – | Cc1ccccc1-c1noc(-c2ccc3c(c2)CCC(=O)N3)n1 [Compound 365, 6-[3-(2-methylphenyl)-1,2,4-oxadiazol-5-yl]-1,2,3,4-tetrahydroquinolin-2-one] | – | – |
| – | <6.5 | – | <5 | – | – | O=C1CNc2ccc(-c3nc(-c4cccnc4)no3)cc2N1 [Compound 629, 7-[3-(pyridin-3-yl)-1,2,4-oxadiazol-5-yl]-1,2,3,4-tetrahydroquinoxalin-2-one] | – | – |
| > 75% | – | > 75% | – | < 0.316 µM | < 10 µM | Cc1cc(-c2noc(-c3ccc4c(c3)nnn4C(C)C)n2)c(C)o1 [Compound 490, 5-[3-(2,5-dimethylfuran-3-yl)-1,2,4-oxadiazol-5-yl]-1-(propan-2-yl)-1H-1,2,3-benzotriazole] | – | – |
| < 75% | <6.5 | > 75% | <5 | – | – | CCC1(CC)CC(=O)c2cc(-c3nc(-c4ccccc4O)no3)ccc2O1 [Compound 187, 2,2-diethyl-6-[3-(2-hydroxyphenyl)-1,2,4-oxadiazol-5-yl]chroman-4-one] | – | – |
| < 75% | <6.5 | < 75% | <5 | – | – | Cc1cc(C)cc(-c2noc(-c3ccc4c(c3)nnn4C3CCCCC3)n2)c1 [Compound 158, 1-cyclohexyl-5-[3-(3,5-dimethylphenyl)-1,2,4-oxadiazol-5-yl]-1H-1,2,3-benzotriazole] | – | – |
| – | >6.5 | – | >5 | – | – | Cc1ccsc1-c1nc(-c2ccc3c(c2)nnn3CC(C)(C)CO)no1 [Compound 524, 2,2-dimethyl-3-(5-(5-(3-methylthiophen-2-yl)-1,2,4-oxadiazol-3-yl)-1H-benzo[d][1,2,3]triazol-1-yl)propan-1-ol] | – | – |
| < 75% | – | < 75% | – | > 0.316 µM | > 10 µM | CC(C)n1nnc2cc(-c3noc(C45C6C7C4C4C5C6C74C(=O)O)n3)ccc21 (stereo not drawn) [Compound 379] | – | – |
| – | <6.5 | – | >5 | – | – | Cc1ccccc1-c1cc(-c2ccc3c(c2)nnn3C(C)C)c[nH]1 [Compound 601, 5-[5-(2-methylphenyl)-1H-pyrrol-3-yl]-1-(propan-2-yl)-1H-1,2,3-benzotriazole] | – | – |
| – | <6.5 | – | <5 | – | – | CCC1(CC)CC(=O)c2cc(-c3nc(-c4ncccn4)no3)ccc2O1 [Compound 640, 2,2-diethyl-6-(3-(pyrimidin-2-yl)-1,2,4-oxadiazol-5-yl)chroman-4-one] | – | – |
| – | <6.5 | – | <5 | – | – | CCC1(CC)CC(=O)c2cc(-c3nc(-c4ccc5ncccc5c4)no3)ccc2O1 [Compound 521, 2,2-diethyl-6-(3-(quinolin-6-yl)-1,2,4-oxadiazol-5-yl)chroman-4-one] | – | – |
| – | >6.5 | – | <5 | – | – | N#Cc1cc(-c2nnc(-c3ccc4[nH]c(=O)oc4c3)o2)ccc1NCC1CC1 [Compound 486, 2-[(cyclopropylmethyl)amino]-5-[5-(2-oxo-2,3-dihydro-1,3-benzoxazol-6-yl)-1,3,4-oxadiazol-2-yl]benzonitrile] | – | – |
| – | >6.5 | – | >5 | – | – | CCC1(CC)CC(=O)c2cc(-c3nc(-c4sccc4OC)no3)ccc2O1 [Compound 604, 2,2-diethyl-6-(3-(3-methoxythiophen-2-yl)-1,2,4-oxadiazol-5-yl)chroman-4-one] | – | – |
| < 75% | <6.5 | < 75% | <5 | – | – | COc1cccc(OC)c1-c1noc(-c2ccc3c(ccn3C(C)C)c2)n1 [Compound 325, 3-(2,6-dimethoxyphenyl)-5-(1-isopropylindol-5-yl)-1,2,4-oxadiazole] | – | – |

| SMILES | Emax [1, 3] | hS1P1 cAMP pEC50 [1] | Emax [2, 3] | hS1P1 B-arrestin2 pEC50 [2] | EC50 [1] | EC50 [2] | hS1P1 cAMP SPAN [1, 3] | hS1P1 B-arrestin2 SPAN [2, 3] |
| --- | --- | --- | --- | --- | --- | --- | --- | --- |
| FC(F)(F)Oc1cccc(-c2nc(-c3ccc4c(c3)nnn4C3CCCC3)no2)c1 [Compound 10, 3-(1-cyclopentyl-1H-benzo[d][1,2,3]triazol-5-yl)-5-(3-(trifluoromethoxy)phenyl)-1,2,4-oxadiazole] | – | <6.5 | – | <5 | – | – | <75 | <75 |
